Columns and labels:
[1] = system: HepG2 (hepatocellular carcinoma) cells; test: Cell viability of solid cancer cells, WST assay, HepG2; format: cell-based; conditions: Homo sapiens, 1-30 μM, 6 hours
Source text: (§1) To investigate availability as a medicine for solid cancer, A549 cell line obtained from a -person with lung carcinoma, HeLa cell line obtained from a person with cervix adenocarcinoma, HepG2 cell line obtained from a child with hepatocellular carcinoma, MCF7 cell line obtained from a person with breast adenocarcinoma, and Beas-2B cell line obtained from normal lung for comparison with solid cancer cell line were used.
(§2) A549 (lung carcinoma), HeLa (cervix adenocarcinoma), HepG2 (hepatocellular carcinoma), MCF7 (breast adenocarcinoma), and Beas-2B (normal lung) cell lines were incubated in DMEM medium containing 10% FBS at 37 °C in a 5% CO2 incubator, and subcultured every 2 days before use in the test.
(§3) A549 (lung carcinoma), HeLa (cervix adenocarcinoma), HepG2 (hepatocellular carcinoma), MCF7 (breast adenocarcinoma), and Beas-2B (normal lung) cells were seeded at 1×10^4 cells/well in a 96-well plate, and then for cell stabilization, the cells were incubated at 37 °C in a 5% CO2 incubator for 16 hours or longer. Thereafter, the cells were treated with compounds 99, 163, 191, and 192 (1-30 μM) out of the compounds synthesized in Example 1-1, and then incubated for 6 hours. DMSO and β-lapachone were used as a control. After 4 hours of incubation, 10 μl of WST solution was added to the cells, followed by incubation for 2 hours, and then the absorbance at 450 nm was measured by a multi-scan machine. The cell viability of A549 (lung carcinoma), HeLa (cervix adenocarcinoma), HepG2 (hepatocellular carcinoma), MCF7 (breast adenocarcinoma), and Beas-2B (normal lung) cells is shown in Table 5 and FIG. 5.

[2] = system: KG1α cells (refractory acute myeloid leukemia); test: Cell viability of KG1α cells, WST assay; format: cell-based, human; conditions: 0.1-3 μM
Procedure: Acute leukemia has been identified to have a wide variety of causative factors and a variety of cell lines have also been established. To investigate the availability as a wide-spectrum medicine but not a medicine for a particular type of acute leukemia, KG1α cells were constructed by selecting only cells having a stem cell phenotype from KG1 cells, which are a cell line obtained from a -person with acute myeloid leukemia, and then used.
KG1α cells were incubated in IMDM containing 20% fetal bovine serum (FBS). All the cells were incubated at 37 °C in a 5% CO2 incubator, and subcultured every 2 or 3 days before use in the test.
KG1α cells, which have resistance to idarubicin and cytarabine, which are acute myeloid leukemia medicines, are refractory acute myeloid leukemia (AML) cells. KG1α cells incubated in Example 2-1 were seeded at 1×10^5 cells/well in a 96-well plate, and then for cell stabilization, the cells were incubated at 37 °C in a 5% CO2 incubator for 16 hours or longer. Thereafter, the cells were treated with compounds 99 and 163 (0.1-3 μM) shown in Table 4 out of the compounds synthesized in Example 1, and then incubated for 24 hours. […] After 24 hours, the cells were treated with 10 μl of WST solution and then incubated for 2 hours, and then the absorbance at 450 nm was measured by a multi-scan machine.

[3] = system: MCF7 (breast adenocarcinoma) cells; test: Cell viability of solid cancer cells, WST assay, MCF7; format: cell-based; conditions: Homo sapiens, 1-30 μM, 6 hours
Source text: as §1, §2, §3

[4] = system: HeLa (cervix adenocarcinoma) cells; test: Cell viability of solid cancer cells, WST assay, HeLa; format: cell-based; conditions: Homo sapiens, 1-30 μM, 6 hours
Source text: as §1, §2, §3

[5] = system: K562 cells (chronic myeloid leukemia); test: Cell viability of K562 cells, WST assay; format: cell-based, human; conditions: 0.1-5 μM
Procedure: K562 cells obtained from a -person with chronic myeloid leukemia were incubated in RPMI medium containing 10% fetal bovine serum (FBS) at 37 °C in a 5% CO2 incubator, and subcultured every 2 days before use in the test.
K562 cells incubated in Example 3-1 were seeded at 1×10^5 cells/well in a 96-well plate, and then for cell stabilization, the cells were incubated at 37 °C in a 5% CO2 incubator for 16 hours or longer. Thereafter, the cells were treated with compounds 99, 163, 191, and 192 (0.1-5 μM) out of the compounds synthesized in Example 1-1, and then incubated for 4 hours. DMSO was used as a control. After 4 hours of incubation, 10 μl of WST solution was added to the cells, followed by incubation for 2 hours, and then the absorbance at 450 nm was measured by a multi-scan machine.

[6] = system: A549 (lung carcinoma) cells; test: Cell viability of solid cancer cells, WST assay, A549; format: cell-based; conditions: Homo sapiens, 1-30 μM, 6 hours
Source text: as §1, §2, §3

SMILES | IC50 [1] | IC50 ([2]; 24 hours) | IC50 ([2]; Homo sapiens, KG-1, 24 h) | IC50 [3] | IC50 [4] | IC50 ([5]; Homo sapiens, K562, 4 h) | IC50 [6] | IC50 ([5]; 4 hours)
CC(C)c1nc2c(s1)C(=O)C(=O)c1ccccc1-2 [Compound 163] | 14.1 µM | 900 nM | 500 to 1000 nM | 13 µM | 4.6 µM | 2100 nM | 6.1 µM | 
Cn1nnc2c1C(=O)C(=O)c1ccccc1-2 [Compound 192] | 12.2 µM |  |  | 11.7 µM | 4.4 µM | 1000 to 2000 nM | 5 µM | 1200 nM
Cn1nc2c(n1)-c1ccccc1C(=O)C2=O [Compound 191] | 13.8 µM |  |  | 14.8 µM | 6.6 µM | 1000 to 2000 nM | 8.4 µM | 1600 nM
